Experimental data reported in PubChem BioAssay AID248 (DTP/NCI, 2004).
Inconclusive results and toxic doses are left out. Rule as the data show it: active = T/C of 150% or more; inactive = T/C below 125%.

Tested on: L1210 leukemia ip in BDF1 mice, survival T/C
Experiment: NCI In Vivo Anticancer Drug Screen. Data for tumor model L1210 Leukemia (intraperitoneal) in B6D2F1 (BDF1) mice
Settings: endpoint: mean survival time, higher = longer survival
Method in brief: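 Mice bearing the transplanted tumor received compound or vehicle. Survival of the treated group was divided by that of the vehicle-treated control group to give the ratio.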

[1] = dose: 50.0 mg/kg/injection, schedule: Q01DX009 (ip), vehicle: saline with Tween-80
[2] = dose: 100.0 mg/kg/injection, schedule: Q01DX009 (ip), vehicle: saline with Tween-80
[3] = dose: 200.0 mg/kg/injection, schedule: Q01DX009 (ip), vehicle: saline with Tween-80
[4] = dose: 100.0 mg/kg/injection, schedule: Q04DX003 (ip), vehicle: saline
[5] = dose: 200.0 mg/kg/injection, schedule: Q04DX003 (ip), vehicle: saline
[6] = dose: 100.0 mg/kg/injection, schedule: Q04DX003 (ip), vehicle: Klucel (hydroxypropylcellulose) (HPC)
[7] = dose: 200.0 mg/kg/injection, schedule: Q04DX003 (ip), vehicle: Klucel (hydroxypropylcellulose) (HPC)
[8] = dose: 400.0 mg/kg/injection, schedule: Q04DX003 (ip), vehicle: Klucel (hydroxypropylcellulose) (HPC)
[9] = dose: 100.0 mg/kg/injection, schedule: Q01DX001 (ip), vehicle: saline
[10] = dose: 200.0 mg/kg/injection, schedule: Q01DX001 (ip), vehicle: saline
[11] = dose: 400.0 mg/kg/injection, schedule: Q01DX001 (ip), vehicle: saline

Measured: T/C

NCc1c(Cl)c(Cl)c(CN)c(Cl)c1Cl
inactive: [1] 96 % of control | dose: 50.0 mg/kg/injection, schedule: Q04DX003 (ip), vehicle: saline with Tween-80 92 % of control | [2] 94 % of control | dose: 100.0 mg/kg/injection, schedule: Q04DX003 (ip), vehicle: saline with Tween-80 92 % of control | [3] 88 % of control | dose: 200.0 mg/kg/injection, schedule: Q04DX003 (ip), vehicle: saline with Tween-80 105 % of control

CCCCCCC1CCC(O)C1CCCCCCC(=O)O (centres undefined)
inactive: dose: 50.0 mg/kg/injection, schedule: Q04DX002 (ip), vehicle: saline 98 % of control | dose: 100.0 mg/kg/injection, schedule: Q04DX002 (ip), vehicle: saline 91 % of control | dose: 200.0 mg/kg/injection, schedule: Q04DX002 (ip), vehicle: saline 91 % of control

Cc1ccc(S(=O)(=O)OCC2C3CCC4C3C(C)(C)CCCC24C)cc1 (centres undefined)
inactive: dose: 100.0 mg/kg/injection, schedule: Q01DX001 (ip), vehicle: Klucel (hydroxypropylcellulose) (HPC) 107 % of control | dose: 200.0 mg/kg/injection, schedule: Q01DX001 (ip), vehicle: Klucel (hydroxypropylcellulose) (HPC) 95 % of control | dose: 400.0 mg/kg/injection, schedule: Q01DX001 (ip), vehicle: Klucel (hydroxypropylcellulose) (HPC) 90 % of control

COC(=O)C(C)C(O)c1ccc(C)cc1 (centres undefined)
inactive: [1] 93 % of control | [2] 93 % of control | [3] 93 % of control

CC(C)CCNCC(C)OC(=O)c1ccc([N+](=O)[O-])cc1 (centres undefined)
inactive: dose: 75.0 mg/kg/injection, schedule: Q01DX001 (ip), vehicle: other 98 % of control | dose: 150.0 mg/kg/injection, schedule: Q01DX001 (ip), vehicle: other 106 % of control | dose: 300.0 mg/kg/injection, schedule: Q01DX001 (ip), vehicle: other 95 % of control

C[n+]1ccc(/C=C/c2c[nH]c3ccccc23)cc1
inactive: dose: 6.25 mg/kg/injection, schedule: Q04DX003 (ip), vehicle: saline with Tween-80 92 % of control | dose: 12.5 mg/kg/injection, schedule: Q04DX003 (ip), vehicle: saline with Tween-80 104 % of control | dose: 25.0 mg/kg/injection, schedule: Q04DX003 (ip), vehicle: saline with Tween-80 97 % of control

CCOC(=O)C[n+]1ccccc1Br
inactive: dose: 50.0 mg/kg/injection, schedule: Q01DX015 (ip), vehicle: water 90 % of control | dose: 100.0 mg/kg/injection, schedule: Q01DX015 (ip), vehicle: water 100 % of control

CCC1=CCN2CCC34c5cc(C6(C(=O)OC)CC7CC(CC)CN(CCc8c6[nH]c6ccccc86)C7)c(OC)cc5N(C)C3C(O)(C(=O)OC)C(OC(C)=O)C1C24 (centres undefined)
inactive: dose: 0.8 mg/kg/injection, schedule: Q01DX001 (ip), vehicle: saline 100 % of control | dose: 1.6 mg/kg/injection, schedule: Q01DX001 (ip), vehicle: saline 100 % of control | dose: 3.2 mg/kg/injection, schedule: Q01DX001 (ip), vehicle: saline 101 % of control | dose: 6.4 mg/kg/injection, schedule: Q01DX001 (ip), vehicle: saline 97 % of control

CC(=O)Nc1ccc(C)c([N+](=O)[O-])c1
inactive: dose: 100.0 mg/kg/injection, schedule: Q01DX009 (ip), vehicle: saline 100 % of control | [4] 98 % of control | dose: 200.0 mg/kg/injection, schedule: Q01DX009 (ip), vehicle: saline 93 % of control | [5] 93 % of control | dose: 400.0 mg/kg/injection, schedule: Q01DX009 (ip), vehicle: saline 97 % of control | dose: 400.0 mg/kg/injection, schedule: Q04DX003 (ip), vehicle: saline 102 % of control

CCOC(=O)/C(C#N)=C\c1oc2cc(C)c(C)cc2c1C
inactive: dose: 100.0 mg/kg/injection, schedule: Q01DX009 (ip), vehicle: Klucel (hydroxypropylcellulose) (HPC) 103 % of control | [6] 106 % of control | dose: 200.0 mg/kg/injection, schedule: Q01DX009 (ip), vehicle: Klucel (hydroxypropylcellulose) (HPC) 99 % of control | [7] 101 % of control | dose: 400.0 mg/kg/injection, schedule: Q01DX009 (ip), vehicle: Klucel (hydroxypropylcellulose) (HPC) 94 % of control | [8] 98 % of control

O=[N+]([O-])c1cc(S(=O)(=O)O)c(Nc2ccccc2)cc1NCCO
inactive: [6] 91 % of control | [7] 91 % of control | [8] 90 % of control

CC(=O)OC(C(O)C=O)C(O)C(O)CO (centres undefined) (tested in a mixture with another compound)
inactive: dose: 100.0 mg/kg/injection, schedule: Q04DX002 (ip), vehicle: Klucel (hydroxypropylcellulose) (HPC) 107 % of control | dose: 200.0 mg/kg/injection, schedule: Q04DX002 (ip), vehicle: Klucel (hydroxypropylcellulose) (HPC) 88 % of control

CC1CCCN(C(=O)Nc2cccc(C(F)(F)F)c2)C1 (centres undefined)
inactive: dose: 100.0 mg/kg/injection, schedule: Q01DX009 (ip), vehicle: gum acacia 100 % of control | dose: 200.0 mg/kg/injection, schedule: Q01DX009 (ip), vehicle: gum acacia 110 % of control | dose: 400.0 mg/kg/injection, schedule: Q01DX009 (ip), vehicle: gum acacia 99 % of control

O=c1/c(=C\c2ccccc2)sc2n1CCN=2
inactive: [9] 89 % of control | [10] 92 % of control | [11] 101 % of control

Cc1c2ccn(O)cc2cc2c1nc1ccccc12
inactive: dose: 18.75 mg/kg/injection, schedule: Q01DX009 (ip), vehicle: other 116 % of control | dose: 37.5 mg/kg/injection, schedule: Q01DX009 (ip), vehicle: other 114 % of control | dose: 75.0 mg/kg/injection, schedule: Q01DX009 (ip), vehicle: other 112 % of control | dose: 150.0 mg/kg/injection, schedule: Q01DX009 (ip), vehicle: other 110 % of control

CCCCCCCNC(=O)OCC
inactive: dose: 55.0 mg/kg/injection, schedule: Q01DX Z (ip), vehicle: methylcellulose (MC) 93 % of control | dose: 83.0 mg/kg/injection, schedule: Q01DX Z (ip), vehicle: methylcellulose (MC) 93 % of control | dose: 125.0 mg/kg/injection, schedule: Q01DX Z (ip), vehicle: methylcellulose (MC) 104 % of control

Cc1nc2c(NC(=O)CCl)nn(C)c2nc1C
inactive: [1] 98 % of control | [2] 98 % of control

O=C1C=CC(=O)N1c1ccc(Br)cc1 (tested in a mixture with another compound)
inactive: dose: 100.0 mg/kg/injection, schedule: Q04DX003 (ip), vehicle: acetone 96 % of control | dose: 200.0 mg/kg/injection, schedule: Q04DX003 (ip), vehicle: acetone 89 % of control | dose: 400.0 mg/kg/injection, schedule: Q04DX003 (ip), vehicle: acetone 91 % of control

CC#CC(O)(C(=O)OCC)C1CCCCC1 (centres undefined)
inactive: [9] 96 % of control | [10] 113 % of control | [11] 100 % of control

COP(N)(=S)OC
inactive: dose: 75.0 mg/kg/injection, schedule: Q01DX001 (ip), vehicle: saline 101 % of control | dose: 150.0 mg/kg/injection, schedule: Q01DX001 (ip), vehicle: saline 98 % of control | dose: 300.0 mg/kg/injection, schedule: Q01DX001 (ip), vehicle: saline 104 % of control

CNC(=O)CCC(=O)O
inactive: dose: 50.0 mg/kg/injection, schedule: Q04DX003 (ip), vehicle: saline 103 % of control | [9] 102 % of control | [4] 107 % of control | [10] 93 % of control | [5] 108 % of control | [11] 94 % of control
